# Measurements: paper PMC9597002, “The Combination of Individual Herb of Mi-Jian-Chang-Pu Formula Exerts a Synergistic Effect in the Treatment of Ischemic Stroke in Rats” (Oxidative Medicine and Cellular Longevity, 2022)
# Experiments:
# MCAO rats [1] = assay: Infarct volume measurement by TTC staining; assay type: in vivo, Sprague-Dawley rats; details: oral once daily 14 days, compared with model group
# MCAO rats [2] = assay: Neurological deficit score (Longa's five-point scale) 24 h after reperfusion; details: oral once daily 14 days, compared with model group
# Experimental: (§1) 0.5% CMC-Na was used as vehicle with an equal volume (100 g/ml body-weight) for each rat. Treatments were administered once daily by oral gavage for 14 consecutive days. After the last administration, rats were fasted for 12 h, MCAO surgery was performed according to the reference by H Nagasawa and K Kogure. […] After 2 h of sustained MCAO, reperfusion was conducted, and the rats in sham operation group received the same surgical procedures except that the occluding monofilament was not inserted.
# 24 h after reperfusion, all rats were tested for sensorimotor ability according to the Longa's five-point scale (0, no neurologic deficit; 1, a slight forelimb flexion; 2 severe forelimb flexion and decreased resistance to lateral push; 3, spontaneous rotation or contralateral rotation to the affected side; 4, consciousness reduced and unable or difficult to move; 5, no response to stimulation).
# MCAO rats [3] = assay: Brain histopathology by HE staining; details: oral once daily 14 days
# Experimental: as §1
# For brain histology, the tissue was fixed in 4% paraformaldehyde for 24 h, then the brain slices were rinsed, dehydrate, paraffin embedded, sectioned, and stained with hematoxylin-eosin (HE). The histopathological changes were observed under optical microscope.
Structure (SMILES),Cerebral infarction volume ratio (TTC staining) (MCAO rats [1]),Neurological deficit score (MCAO rats [2]),Histopathological changes in brain tissue (HE staining) (MCAO rats [3])
"CC(/C=C/C=C(\C)C(=O)O[C@@H]1O[C@H](CO[C@@H]2O[C@H](CO)[C@@H](O)[C@H](O)[C@H]2O)[C@@H](O)[C@H](O)[C@H]1O)=C\C=C\C=C(C)\C=C\C=C(/C)C(=O)O[C@@H]1O[C@H](CO[C@@H]2O[C@H](CO)[C@@H](O)[C@H](O)[C@H]2O)[C@@H](O)[C@H](O)[C@H]1O [A1, crocin I]",reduce the infarction volume significantly,significant effects,protective effect on brain injury
"C/C=C\c1cc(OC)c(OC)cc1OC [B1, β-asarone]",reduce the infarction volume significantly,significant effects,protective effect on brain injury
